Test results published in patent publication US20050113284A1, “Drug for regenerating tissue and vessel and method therefor” (priority 2001, published 2005).
Values belong to the compound of their own block, whether it stands above or below them.

Columns and labels:
liver = assay: HGF-dependent liver enlargement in MERMUC-Tg and non-Tg mice; format: in vivo; settings: human HGF expression plasmid 28 μg/mouse into tail vein, two days
Description: It has been reported that HGF is transiently overexpressed in vivo by the injection of HGF expression plasmid DNA into the tail vein of normal mice, causing liver enlargement due to the enhancement of hepatocyte proliferation (Hepatology, 2001, Vol. 33, p848-859). Therefore, to validate the down-regulation activity of MERMUC on HGF receptor mediated signaling, the method in the above mentioned report was applied to MERMUC overexpressing transgenic mice (MERMUC-Tg; 7 weeks old; male; 23-33 g) produced in the previous Example, and the effect due to the expression of MERMUC on liver enlargement induced by HGF overexpression was examined. Human HGF expression plasmid (human HGF-cDNA in pcDNA3; Invitrogen) or plasmid pcDNA3 (mock) was injected into the tail vein of each of MERMUC-Tg mouse and littermate non-Tg mouse at a concentration of 28 μg/mouse (2.3 ml saline) within 5 to 10 seconds. The HGF level in serum of each of the mice was measured using a human HGF ELISA kit (Genzyme Techne) two days after the plasmid injection. The level of HGF production due to the administered plasmid in each animal was evaluated together with the changes in liver weight upon laparotomy.

MERMUC = MERMUC protein phosphorylation in [32P]-labelled MERMUC/293 cells; format: cell-based, human; settings: for phosphorylation of MERMUC upon growth factor stimulation: MERMUC overexpressing cells cultured without Dox, HGF 20ng/ml, 5 min
Protocol: After labeling the Tet-Off/MERMUC expressing recombinant cells (MERMUC/293 cells) produced above with (^32P] orthophosphate, the cells were stimulated with human recombinant HGF (20ng/ml; 5 min). Next, cell lysate was prepared by lysing cells according to conventional method. Anti-human MERMUC polyclonal antibody prepared as above (Example 2) was added to and reacted with the obtained cell lysate, bound to protein-G Sepharose, and then MERMUC protein and anti-MERMUC polyclonal antibody complex was precipitated by centrifugation.
The precipitate was extracted with 1% SDS and similar immunoprecipitation procedure was performed to reduce the background. The sample prepared by this procedure was separated by SDS-PAGE and analyzed by autoradiography.
Furthermore, MERMUC expression in the above mentioned recombinant cells was confirmed to be constant regardless of the presence or absence of HGF by Western blotting according to conventional method using anti-human MERMUC polyclonal antibody.
The following experiments were conducted similarly as described above: • 1) epidermal growth factor (EGF) was used in place of HGF; • 2) MERMUC expressing cells were treated with HGF signaling suppressor, PI3 kinase inhibitor (LY294002; 10 μM; CALBIOCHEM), before HGF stimulation; • 3) MERMUC expressing cells were treated with HGF signaling suppressor, MEK 1/2 inhibitor (U0126; 10 μM; CALBIOCHEM), before HGF stimulation; • 4) MERMUC expressing cells were treated with PI3 kinase inhibitor (LY294002; 10 μM) before EGF stimulation; and • 5) MERMUC expressing cells were treated with MEK 1/2 inhibitor (U0126; 10 μM) before EGF stimulation.

hepatocytes = assay: Growth factor dependent proliferation of primary hepatocytes of MERMUC-Tg and non-Tg mice; format: cell-based, mouse; settings: 24 hr
Protocol: Primary cell culture of hepatocytes from liver cells obtained from the liver of each of the MERMUC-Tg mice (8 weeks old, 4 mice) and non-Tg mice (8 weeks old, 4 mice) was prepared by collagenase treatment according to the method of Berry and Friend, and Seglen et al. (Berry & Friend, J. Cell Biol., 1969, Vol. 43, p. 506-520; Seglen et al., Methods in Cell Biol., 1976, Vol. 13, p. 29-83).
Each of the obtained hepatocytes (2×10^3 cells) was cultured in serum-free media for 15 hr, HGF (0, 1 or 3 ng/ml) was added to the media to induce HGF-dependent cell proliferation, and was further cultured. Similarly, cultivation was performed by adding epidermal growth factor (EGF; 0, 1, or 10 ng/ml) in place of HGF to the culture as a control.
After 24 hr from HGF addition, cell numbers were counted using Cell Count Reagent SF (Nacalai tesque) according to the experimental protocol provided with the reagent to calculate the relative cell proliferation rate after HGF (or EGF) addition. Tests were conducted in triplicate.

[1] = system: C-terminal region of human MERMUC (bait-2, bait-3); assay: Yeast two hybrid screening of human kidney cDNA library with MERMUC baits; format: binding; settings: bait-2 = 123 amino acid portion of the C-terminus of human MERMUC
Sequence of C-terminal region of human MERMUC (bait-2, bait-3) (Q8N307 587-709): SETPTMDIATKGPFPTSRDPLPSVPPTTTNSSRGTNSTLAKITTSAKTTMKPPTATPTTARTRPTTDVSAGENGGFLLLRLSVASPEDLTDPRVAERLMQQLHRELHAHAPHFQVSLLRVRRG
Protocol: Specifically, yeast two hybrid system (Proc. Natl. Acad. Sci. USA., 1991, Vol.88, p.9578-9582) was performed to screen a human kidney cDNA library using cDNA corresponding to the C-terminal region of the human MERMUC as the bait (that is, fishing bait).
Two kinds of bait (bait-2 and bait-3) were designed using each of Ex.-2 and Ex.-3 as the core. Bait-2 corresponds to a 123 amino acid portion of the C-terminus (bait-2) and bait-3 corresponds to the 65 C-terminal amino acids (bait-3).
Each bait vector was obtained by inserting each DNA fragment obtained by digesting each of the PCR products with the restriction enzymes EcoRI and SalI into the EcoRI/SalI site of pGBKT7 vector (leucine biosynthesis gene as a marker; CLONTECH). In yeast, the gene within the vector is produced as a fusion protein ([fusion protein A]) with the DNA binding region (GAL4-DB) of the yeast transcription factor GAL4.
On the other hand, each cDNA of the human kidney derived cDNA library (CLONTECH) that is used for the screening with the bait vector is inserted in pADK vector (tryptophan biosynthesis gene as a marker). Therefore, proteins produced through the expression of each of these cDNAs in yeast are produced as a fusion protein ([fusion protein B]) with the GAL4 transcriptional activation region (GAL4-AD). […]

[2] = target: T1, HGF receptor c-Met β chain (Homo sapiens, UniProt P08581); assay: Yeast two-hybrid binding of MERMUC bait proteins to c-Met prey (C-terminal 91 amino acids); settings: prey clone No. 3-309 (C-terminal 91 amino acids of human c-Met)
T1 construct: expressed in transfected cells; host or cells: yeast AH109 strain (library prey plasmid, human kidney cDNA library, CLONTECH)
T1 sequence (P08581 1300-1390): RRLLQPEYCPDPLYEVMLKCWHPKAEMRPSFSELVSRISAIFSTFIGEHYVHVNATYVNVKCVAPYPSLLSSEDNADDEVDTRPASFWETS
Protocol: The present examination was performed using the previously reported yeast two-hybrid system (references are described above) according to conventional method and the experimental protocols provided with the reagents. […]
The binding ability of MERMUC bait protein derived from each of the bait vectors to the HGF receptor c-Met β chain was analyzed by the yeast two-hybrid system described above. […]
Each of the bait vectors was cointroduced into yeast AH109 strain with human HGF receptor c-Met prey vector (comprising DNA encoding the C-terminal 91 amino acids of the c-Met; Example 1). The binding ability of each of the bait proteins (randomly selected 10 amino acids of the human MERMUC C-terminal region) to the C-terminal region of human c-Met β chain was analyzed by the yeast two-hybrid system similar to the aforementioned Example.

Compound: HGF: hepatocyte growth factor, ligand of c-Met; in b422 supplied by human HGF expression plasmid (human HGF-cDNA in pcDNA3)
increase of the ratio of liver weight to body weight (liver; MERMUC-Tg mice): about 1.2 times | increase of the ratio of liver weight to body weight (liver; non-Tg mice): about 1.6 times | phosphorylation of MERMUC upon growth factor stimulation (MERMUC): strong signal band | proliferation due to HGF stimulation of hepatocytes (hepatocytes; MERMUC-Tg derived hepatocytes compared with non-Tg, HGF 0, 1 or 3 ng/ml): significant decrease

binding ability to the protein derived from bait-2 [1]: had binding ability
Compound: clone No. 2-211: prey protein: C-terminal 56 amino acids (amino acids 448-503 of SEQ ID NO: 10) of human MERMUC (VSAGENGGFLLLRLSVASPEDLTDPRVAERLMQQLHRELHAHAPHFQVSLLRVRRG; listed as Homo sapiens)

binding activity to the HGF receptor c-Met β chain [2]: possessed the binding activity
Compound: C53: MERMUC bait protein, C-terminal 53 amino acids of C260; amino acids 451-503 of SEQ ID NO: 10 (GENGGFLLLRLSVASPEDLTDPRVAERLMQQLHRELHAHAPHFQVSLLRVRRG; listed as Homo sapiens)

Compound: EGF: epidermal growth factor, used as control in place of HGF
phosphorylation of MERMUC upon growth factor stimulation (MERMUC): did not show effect to increase phosphorylation of MERMUC | EGF stimulated hepatocyte proliferation (hepatocytes; MERMUC-Tg and non-Tg hepatocytes, EGF 0, 1 or 10 ng/ml): dosage-dependent cell proliferation

Compound: N#CC(=C(/N)Sc1ccccc1N)/C(C#N)=C(/N)Sc1ccccc1N [MEK 1/2 inhibitor, U0126, reference compound]
suppression of the enhancement of MERMUC phosphorylation (MERMUC; cells treated with inhibitor 10 μM before HGF stimulation): suppressed only in the cells treated with PI3 kinase inhibitor
